Calls of active or inactive are those of the source. No cut-off for these calls is given here.
How the values were obtained:
Mus musculus [1] = test: (§1) Reno-protective activity against CLP-induced acute kidney injury C57BL/6J mouse model assessed as decrease in cleaved IL-1 beta protein expression in kidney at 20 mg/kg, ip administered twice at 30 mins prior to CLP operation and 8 hrs post-CLP operation and measured at 16 hrs post-CLP operation by western blot analysis; assay type: functional, organism-based; settings: time 16.5 hrs
HEK293 = test: Cytotoxicity against human HEK293 cells transfected with human P2X7 receptor assessed as effect on cell viability at 1 to 4 uM incubated for 2 hrs by CCK8 assay; assay type: toxicity, cell-based; settings: hek293, 2 h, dose 1-4 µM
Mus musculus [2] = test: Reno-protective activity against LPS-induced acute kidney injury C57BL/6J mouse model assessed as decrease in BUN level at 10 mg/kg, ip administered twice at 30 mins prior to LPS challenge and 8 hrs post-LPS challenge and measured at 16 hrs post-LPS challenge; assay type: functional, organism-based; settings: time 16.5 hrs
THP-1 = test: Cytotoxicity against human THP-1 cells assessed as effect on cell viability at 1 to 4 uM incubated for 2 hrs by CCK8 assay; assay type: toxicity, cell-based; settings: thp-1, 2 h, dose 1-4 µM
Cytochrome P450 1A2 = biological target: T1, Cytochrome P450 1A2 (Homo sapiens, UniProt P05177); test: Inhibition of CYP1A2 in human liver microsomes using phenacetin as substrate upto 100 uM incubated for 10 mins in presence of NADPH by LC-MS/MS analysis; assay type: ADME, Microsome
T1 sequence (P05177 whole entry): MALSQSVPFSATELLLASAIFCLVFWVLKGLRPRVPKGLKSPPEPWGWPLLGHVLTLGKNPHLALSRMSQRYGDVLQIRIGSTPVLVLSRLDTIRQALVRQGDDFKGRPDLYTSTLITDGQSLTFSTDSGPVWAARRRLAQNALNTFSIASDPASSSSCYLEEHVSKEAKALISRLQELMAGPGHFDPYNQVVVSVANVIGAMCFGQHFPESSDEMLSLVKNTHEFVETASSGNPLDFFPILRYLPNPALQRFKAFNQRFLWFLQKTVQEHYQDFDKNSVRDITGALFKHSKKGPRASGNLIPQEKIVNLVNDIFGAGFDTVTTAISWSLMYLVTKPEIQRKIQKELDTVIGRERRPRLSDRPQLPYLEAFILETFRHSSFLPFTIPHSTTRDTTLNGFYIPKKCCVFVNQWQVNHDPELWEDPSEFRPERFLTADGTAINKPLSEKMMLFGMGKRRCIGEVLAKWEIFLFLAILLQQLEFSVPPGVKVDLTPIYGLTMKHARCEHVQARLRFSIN

[3] = Cmax in BALB/c mouse at 10 mg/kg, iv measured for 24 hrs by LC-MS/MS analysis; assay type: ADME, organism-based; set-up: time 24 hrs, dose 10 mg/kg, route iv; settings: in vivo
Mus musculus [4] = test: Reno-protective activity against LPS-induced acute kidney injury C57BL/6J mouse model assessed as decrease in BUN level at 5 to 20 mg/kg, ip administered twice at 30 mins prior to LPS challenge and 8 hrs post-LPS challenge and measured at 16 hrs post-LPS challenge; assay type: functional, organism-based; settings: dose 5-20 mg/kg, time 16.5 hrs
[5] = Clearance in BALB/c mouse at 10 mg/kg, ip measured for 24 hrs by LC-MS/MS analysis; assay type: ADME, organism-based; settings: in vivo
[6] = Toxicity in C57BL/6J mouse assessed as pathological changes in spleen at 20 mg/kg, ip administered twice at 0 hrs and 8 hrs and measured after 16 hrs by Hematoxylin-Eosin staining based analysis; assay type: organism-based; settings: in vivo
Mus musculus [7] = test: as §1, with “tubular injury” for “cleaved IL-1 beta protein expression in kidney”, “Hematoxylin-Eosin staining based” for “western blot”; assay type: functional, organism-based; settings: time 16.5 hrs
P2X purinoceptor 7 = biological target: T2, P2X purinoceptor 7 (Mus musculus, UniProt Q9Z1M0); test: Antagonist activity at mouse P2X7 receptor expressed in HEK293 cells assessed as inhibition of ATP-induced receptor pore formation by propidium iodide dye uptake based fluorescence analysis; assay type: cell-based
T2 sequence (Q9Z1M0 whole entry): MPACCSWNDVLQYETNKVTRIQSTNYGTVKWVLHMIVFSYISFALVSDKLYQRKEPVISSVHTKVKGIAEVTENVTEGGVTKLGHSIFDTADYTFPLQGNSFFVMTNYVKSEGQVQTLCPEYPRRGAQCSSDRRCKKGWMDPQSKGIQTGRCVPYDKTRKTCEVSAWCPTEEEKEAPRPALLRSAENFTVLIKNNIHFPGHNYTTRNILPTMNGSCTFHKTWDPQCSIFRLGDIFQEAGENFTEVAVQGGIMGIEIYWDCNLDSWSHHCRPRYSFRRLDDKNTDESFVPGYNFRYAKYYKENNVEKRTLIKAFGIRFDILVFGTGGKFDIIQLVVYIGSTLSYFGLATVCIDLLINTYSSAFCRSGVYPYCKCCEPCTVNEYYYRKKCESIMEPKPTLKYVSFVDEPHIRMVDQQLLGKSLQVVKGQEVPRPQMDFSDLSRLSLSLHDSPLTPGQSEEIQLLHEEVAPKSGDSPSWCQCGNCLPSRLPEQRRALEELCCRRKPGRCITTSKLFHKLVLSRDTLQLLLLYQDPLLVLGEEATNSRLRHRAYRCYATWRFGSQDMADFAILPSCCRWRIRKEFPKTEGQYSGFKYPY

[8] = Toxicity in ip dosed C57BL/6J mouse assessed as maximum tolerated dose and measured for 14 days; assay type: organism-based; settings: in vivo, time 14 day
Mus musculus [9] = test: Reno-protective activity against CLP-induced acute kidney injury C57BL/6J mouse model assessed as decrease in serum […] level at 20 mg/kg, ip administered twice at 30 mins prior to CLP operation and 8 hrs post-CLP operation and measured at 16 hrs post-CLP operation; assay type: functional, organism-based; settings: time 16.5 hrs
Mus musculus [10] = test: as §1, with “GSDMD mRNA” for “cleaved IL-1 beta protein”, “RT-qPCR” for “western blot”; assay type: functional, organism-based; settings: time 16.5 hrs
[11] = Tmax in BALB/c mouse at 10 mg/kg, po measured for 24 hrs by LC-MS/MS analysis; assay type: ADME, organism-based; settings: in vivo

CS(=O)(=O)c1ccc(-c2nc(C(=O)NCc3cn(-c4cc(Br)ccn4)nn3)cs2)cc1
Activity (Mus musculus [1]): Active | Activity (HEK293): Non-Toxic | Activity (Mus musculus [2]): Active | Activity (THP-1): Non-Toxic | inhibition (INH) (Cytochrome P450 1A2): Not Active | Cmax [3]: 4730 ng/mL | Activity (Mus musculus [4]): Dose-Dependent Effect | CL/F [5]: 12.7 mL/min/kg | Activity [6]: Non-Toxic | Activity (Mus musculus [7]): Active | IC50 (P2X purinoceptor 7): 10.1 nM | MTD at 336 h [8]: 400 mg/kg | Activity (Mus musculus [9]): Active | Activity (Mus musculus [10]): Active | Tmax [11]: 1.17 h
